# From patent US5919824A, “Aminophenol derivatives” (Daiichi Pharmaceutical Co., Ltd., priority 1995, dated 1999)
# How the values were obtained:
# [1] = biological target: T1, human CCK-B/gastrin receptor (Homo sapiens, UniProt P32239); assay: Inhibition of binding against gastrin receptor (125I-gastrin, CHO cells); conditions: [125I]gastrin 25 pM, CHO cells expressing human CCK-B/gastrin receptor, 37° C.
# T1 construct: expressed in transfected cells; host or cells: CHO cells (Chinese hamster ovary)
# T1 sequence (P32239 1-447): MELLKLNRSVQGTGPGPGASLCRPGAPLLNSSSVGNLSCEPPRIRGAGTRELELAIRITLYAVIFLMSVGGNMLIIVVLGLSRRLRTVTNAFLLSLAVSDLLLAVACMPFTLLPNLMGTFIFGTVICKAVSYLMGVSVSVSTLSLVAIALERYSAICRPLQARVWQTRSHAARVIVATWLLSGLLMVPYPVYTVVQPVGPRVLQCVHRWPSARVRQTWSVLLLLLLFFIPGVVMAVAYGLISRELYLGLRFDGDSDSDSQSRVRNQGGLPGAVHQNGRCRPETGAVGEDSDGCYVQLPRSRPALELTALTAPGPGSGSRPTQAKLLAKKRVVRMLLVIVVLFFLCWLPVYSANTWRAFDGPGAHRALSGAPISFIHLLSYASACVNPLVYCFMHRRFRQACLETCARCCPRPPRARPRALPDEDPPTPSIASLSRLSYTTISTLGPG
# Method: (§1) Separation of human CCK-B/gastrin receptor cDNA clone, separation of human CCK-A receptor cDNA clone, and expression of respective cloned receptors in heterologous cells.
# (§2) cDNA of human CCK-B/gastrin receptor cDNA (Pisegna et al.: Biochem. Biophys. Res. Commun., 189, 296-303, 1992) and human CCK-A receptor cDNA (Ulrich et al.: Biochem. Biophys. Res. Commun., 193, 204-211, 1993) have already been isolated. The cDNAs having the reported nucleotide sequences were prepared using routine genetic engineering techniques. The isolated human CCK-B/gastrin receptor cDNA or human CCK-A receptor cDNA was integrated in an expression vector using routine genetic engineering techniques and transfected to CHO cells derived from the Chinese hamster ovary so as to induce expression of respective receptors.
# The compounds of the present invention were evaluated by the receptor-binding assay using ^125 I-gastrin and human CCK-B/gastrin receptor expressed in CHO cells. CHO cells expressing the human CCK-B/gastrin receptor were cultured using a Dulbecco's modified Eagle minimum essential medium: nutrient mixture F-12 (hereinafter abbreviated as DMEM/F-12) containing 10% fetal bovine serum at 37° C. in an aerobic phase of 5% CO2 and 95% air. Using a culture dish having a diameter of 16 mm (base area: 2 cm^2), the cells were cultured so as to obtain 5×10^5 cells. The cells were washed with a binding buffer (Earle's balanced salt solution containing 10 mM 4-(2-hydroxyethyl)-1-piperazine ethanesulfonic acid (HEPES) (pH 7.4), 0.1% bovine serum albumin, 2 mM glutamine, and 0.22% sodium hydrogen carbonate) twice, after which a binding buffer (0.5 ml) was added to the dish. To this binding buffer, a test compound (5 μl) dissolved in dimethylsulfoxide (DMSO) was added. The reaction was then allowed to start by adding 0.01 ml (final concentration: 25 pM) of [^125 I]gastrin. When a nonspecific binding amount was obtained, reaction was carried out in the presence of 1 μM of non-labelled gastrin. Reaction was allowed to proceed at 37° C. in an aerobic phase of 5% CO2 and 95% air, after which the cells were washed with phosphate-buffered saline (PBS). [^125 I]gastrin which had not been bound to the cells was removed, and the cells were lysed by adding 1% Triton X-100 (250 μl) to the dish. Radioactivity of this solution was measured by a gamma counter. A specific binding amount was obtained by subtracting a nonspecific binding amount from a total binding amount. Using the thus-obtained specific binding amount, the percentage of the value obtained from a test substance addition group with respect to that of the DMSO addition group was calculated. The percentage was subjected to Hill conversion and then a least squares method, obtaining a 50% inhibitory concentration (IC50).
# [2] = biological target: T2, human CCK-A receptor (Homo sapiens, UniProt P32238); assay: Inhibition of binding against CCK-A receptor (125I-CCK8, CHO cells); conditions: for receptor selectivity (IC50 ratio of CCK-A/gastrin): factor; for IC50: [125I]CCK8 25 pM, CHO cells expressing human CCK-A receptor, 37° C.
# T2 construct: expressed in transfected cells; host or cells: CHO cells (Chinese hamster ovary)
# T2 sequence (P32238 1-428): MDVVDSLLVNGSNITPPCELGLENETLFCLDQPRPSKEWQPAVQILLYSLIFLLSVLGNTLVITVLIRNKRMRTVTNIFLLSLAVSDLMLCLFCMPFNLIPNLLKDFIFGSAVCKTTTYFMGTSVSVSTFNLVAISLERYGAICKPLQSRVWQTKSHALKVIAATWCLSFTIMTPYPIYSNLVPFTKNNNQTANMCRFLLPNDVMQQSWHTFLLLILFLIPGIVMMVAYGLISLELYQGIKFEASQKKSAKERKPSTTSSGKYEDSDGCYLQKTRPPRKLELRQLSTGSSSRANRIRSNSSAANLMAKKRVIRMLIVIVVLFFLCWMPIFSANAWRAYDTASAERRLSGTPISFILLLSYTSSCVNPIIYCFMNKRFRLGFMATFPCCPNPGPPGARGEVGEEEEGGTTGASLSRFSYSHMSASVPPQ
# Method: as §1, §2
# Test method: The compounds of the present invention were evaluated by the receptor-binding assay using ^125 I-gastrin and human CCK-B/gastrin receptor expressed in CHO cells. CHO cells expressing a human CCK-A receptor were cultured using a DMEM/F-12 containing 10% fetal bovine serum at 37° C. in an aerobic phase of 5% CO2 and 95% air. Using a culture dish having a diameter of 16 mm (base area: 2 cm^2), the cells were cultured so as to obtain 5×10^5 cells. The cells were washed with a binding buffer (Earle's balanced salt solution containing 10 mM HEPES (pH 7.4), 0.1% bovine serum albumin, 2 mM glutamine, and 0.22% sodium hydrogen carbonate) twice, after which a binding buffer (0.5 ml) was added to the dish. To this binding buffer, a test compound (5 μl) dissolved in DMSO was added. The reaction was then allowed to start by adding 0.01 ml (final concentration: 25 pM) of [^125 I]CCK8. When a nonspecific binding amount was obtained, reaction was carried out in the presence of 1 μM of non-labelled CCK-8. Reaction was allowed to proceed at 37° C. in an aerobic phase of 5% CO2 and 95% air, after which the cells were washed with PBS. [^125 I]CCK8 which had not been bound to the cells was removed, and the cells were lysed by adding 1% Triton X-100 (250 μl) to the dish. Radioactivity of this solution was measured by a gamma counter. A specific binding amount was obtained by subtracting a nonspecific binding amount from a total binding amount. Using the thus-obtained specific binding amount, the percentage of the value obtained from a test substance addition group with respect to that of the DMSO addition group was calculated. The percentage was subjected to Hill conversion and then to a least squares method, obtaining a 50% inhibitory concentration (IC50).
SMILES,IC50 [1] [nM],receptor selectivity (IC50 ratio of CCK-A/gastrin) [2],IC50 [2] [nM]
"Cc1cccc(N(C)C(=O)COc2ccccc2N(CC(=O)N(C)c2ccccc2)C(=O)CNC(=O)Nc2cccc(CC(=O)O)c2)c1 [Example 73, 2-[3-[3-[N-[2-[N-Methyl-N-(3-methylphenyl)carbamoylmethyloxy]phenyl]-N-(N-methyl-N-phenylcarbamoylmethyl)carbamoylmethyl]ureido]phenyl]acetic acid]",1.9,,
"Cc1ccccc1N(C)C(=O)COc1cccc(N(CC(=O)N(C)c2ccccc2)C(=O)CNC(=O)Nc2cccc(C(C)C(=O)O)c2)c1 (racemic) [Example 79, (±)-2-[3-[3-[N-[3-[N-Methyl-N-(2-methylphenyl)carbamoylmethyloxy]phenyl]-N-(N-methyl-N-phenylcarbamoylmethyl)carbamoylmethyl]ureido]phenyl]propionic acid]",1.6,,
"COc1cccc(N(CC(=O)N(C)c2ccccc2)C(=O)CNC(=O)Nc2cccc(C(C)S(=O)(=O)O)c2)c1 (racemic) [Control compound A, potassium (±)-1-[3-[3-[N-(3-methoxyphenyl-N-(N-methyl-N-phenylcarbomoylmethyl)-carbamoylmethyl]ureido]phenylethane sulfonate, reference compound]",6.5,238,1480
"COc1cccc(N(C)C(=O)COc2ccccc2N(CC(=O)N(C)c2ccccc2)C(=O)CNC(=O)Nc2cccc(C(C)C(=O)O)c2)c1 (racemic) [Example 86, (±)-2-[3-[3-[N-[2-[N-(3-Methoxyphenyl)-N-methylcarbamoylmethyloxy]phenyl]-N-(N-methyl-N-phenylcarbamoylmethyl)carbamoylmethyl]ureido]phenyl]propionic acid]",1,,

# Now those with a lower IC50 [1], led by results:
IC50 [1] [nM],receptor selectivity (IC50 ratio of CCK-A/gastrin) [2],IC50 [2] [nM],SMILES
0.5,7280,3640,"Cc1cc(C)cc(N(C)C(=O)COc2ccccc2N(CC(=O)N(C)c2ccccc2)C(=O)CNC(=O)Nc2cccc(C(C)C(=O)O)c2)c1 (racemic) [Example 92, Sodium (±)-2-[3-[3-[N-[2-[N-methyl-N-(3,5-dimethylphenyl)carbamoylmethyloxy]phenyl]-N-(N-methyl-N-phenylcarbamoylmethyl)carbamoylmethyl]ureido]phenyl]sodium propionate]"
0.87,3654,3180,"COc1cccc(N(C)C(=O)COc2ccccc2N(CC(=O)N(C)c2ccccc2)C(=O)CNC(=O)Nc2cccc(CC(=O)O)c2)c1 [Example 87, 2-[3-[3-[N-[2-[N-(3-Methoxyphenyl)-N-methylcarbamoylmethyloxy]phenyl]-N-(N-methyl-N-phenylcarbamoylmethyl)carbamoylmethyl]ureido]phenyl]acetic acid]"
